≈ marks a conversion by molar mass, not a printed value. Calls of active or inactive are those of the source. No cut-off for these calls is given here.
Assays:
[1] = test system: Bacillus cereus; assay: Antibacterial activity against Bacillus cereus clinical isolate after 48 hrs by serial dilution technique; format: functional
[2] = test system: Micrococcus luteus; assay: Antibacterial activity against Micrococcus luteus clinical isolate after 48 hrs by serial dilution technique; format: functional
[3] = test system: Staphylococcus aureus; assay: Antibacterial activity against Staphylococcus aureus ATCC 6538 after 48 hrs by serial dilution technique; format: functional; conditions: ATCC 6538, 48 h
[4] = test system: Agrobacterium tumefaciens; assay: Antibacterial activity against Agrobacterium tumefaciens A 281 after 48 hrs by serial dilution technique; format: functional; conditions: A 281, 48 h
[5] = test system: Pseudomonas aeruginosa; assay: Antibacterial activity against Pseudomonas aeruginosa clinical isolate after 48 hrs by serial dilution technique; format: functional
[6] = test system: Escherichia coli; assay: Antibacterial activity against Escherichia coli ATCC 35218 after 48 hrs by serial dilution technique; format: functional; conditions: ATCC 35218, 48 h
[7] = test system: Pseudomonas tolaasii; assay: Antibacterial activity against Pseudomonas tolaasii after 48 hrs by serial dilution technique; format: functional
[8] = test system: Salmonella enterica; assay: Antibacterial activity against Salmonella enteritidis ATCC 13076 after 48 hrs by serial dilution technique; format: functional, Salmonella enterica subsp. enterica serovar Enteritidis; conditions: ATCC 13076, 48 h
[9] = test system: Micrococcus luteus; assay: Antibacterial activity against Sarcina lutea ATCC 9341 after 48 hrs by serial dilution technique; format: functional; conditions: ATCC 9341, 48 h
[10] = test system: Candida albicans; assay: Antifungal activity against Candida albicans clinical isolate after 48 hrs by serial dilution technique; format: functional
[11] = test system: Proteus mirabilis; assay: Antibacterial activity against Proteus mirabilis clinical isolate after 48 hrs by serial dilution technique; format: functional, organism-based
[12] = test system: NCI-H460; assay: Cytotoxicity against human H460 cells after 48 hrs by SRB assay; format: functional; conditions: NCI-H460, 48 h
[13] = test system: MCF7; assay: Cytotoxicity against human MCF7 cells after 48 hrs by SRB assay; format: functional; conditions: MCF7, 48 h
[14] = test system: SF-268; assay: Cytotoxicity against human SF268 cells after 48 hrs by SRB assay; format: functional; conditions: SF-268, 48 h
[15] = test system: SF-268; assay: Cytotoxicity against human SF268 at 100 uM cells after 48 hrs by SRB assay; format: functional, cell-based
[16] = test system: NCI-H460; assay: Cytotoxicity against human H460 cells at 100 uM after 48 hrs by SRB assay; format: functional, cell-based
[17] = test system: MCF7; assay: Cytotoxicity against human MCF7 cells at 100 uM after 48 hrs by SRB assay; format: functional, cell-based

Q: With `C=C1C(=O)O[C@H]2CC(=C)[C@@H](O)CC/C(C)=C/[C@@H](O)[C@H]12` [TATRIDIN B] as the compound, how does the MIC [1] read?
A: The MIC was 6.25 µg/mL (≈ 23.6 µM).

Q: And the MIC [2]?
A: The MIC was 6.25 µg/mL (≈ 23.6 µM).

Q: And the MIC [3]?
A: Its MIC is 0.625 µg/mL (≈ 2.36 µM).

Q: What about the MIC [4] of the same compound?
A: Its MIC is 25 µg/mL (≈ 94.6 µM).

Q: What about the MIC [5] of the same compound?
A: Its MIC is 25 µg/mL (≈ 94.6 µM).

Q: What about the MIC [6] of the same compound?
A: Its MIC is 25 µg/mL (≈ 94.6 µM).

Q: And the MIC [7]?
A: The MIC was 25 µg/mL (≈ 94.6 µM).

Q: What about the MIC [8] of the same compound?
A: Its MIC is 25 µg/mL (≈ 94.6 µM).

Q: What about the MIC [9] of the same compound?
A: Its MIC is 6.25 µg/mL (≈ 23.6 µM).

Q: What about the MIC [10] of the same compound?
A: The MIC was 25 µg/mL (≈ 94.6 µM).

Q: And the MIC [11]?
A: Its MIC is “inactive”.

Q: Which results are given for `C=C1C(=O)O[C@H]2C[C@@]3(C)[C@H](O)CCC(=C)[C@@H]3[C@@H](O)[C@H]12`?
A: MIC [1]: 6.25 µg/mL (≈ 23.6 µM); MIC [2]: 6.25 µg/mL (≈ 23.6 µM); MIC [3]: 0.625 µg/mL (≈ 2.36 µM); MIC [4]: 25 µg/mL (≈ 94.6 µM); MIC [5]: 25 µg/mL (≈ 94.6 µM); MIC [6]: 25 µg/mL (≈ 94.6 µM); MIC [7]: 25 µg/mL (≈ 94.6 µM); MIC [8]: 25 µg/mL (≈ 94.6 µM); GI50 [12]: 69 µM; MIC [9]: 6.25 µg/mL (≈ 23.6 µM); MIC [10]: 25 µg/mL (≈ 94.6 µM); MIC [11]: inactive; GI50 [13]: 52.3 µM; LC50 [13]: 85.8 µM; TGI [13]: 64.2 µM; GI50 [14]: 42.7 µM; LC50 [15]: inactive; TGI [15]: inactive; LC50 [16]: inactive; TGI [16]: inactive

Q: `C=C1C(=O)O[C@H]2C[C@@]3(C)[C@H](O)CC[C@@](C)(O)[C@@H]3[C@@H](O)[C@H]12` was tested. Which MIC [1] did it give?
A: Its MIC is 12.5 µg/mL (≈ 44.3 µM).

Q: What about the MIC [2] of the same compound?
A: The MIC was 12.5 µg/mL (≈ 44.3 µM).

Q: What about the MIC [3] of the same compound?
A: The MIC was 1.25 µg/mL (≈ 4.43 µM).

Q: And the MIC [4]?
A: The MIC was 25 µg/mL (≈ 88.5 µM).

Q: And the MIC [5]?
A: Its MIC is 50 µg/mL (≈ 177 µM).

Q: And the MIC [6]?
A: The MIC was 25 µg/mL (≈ 88.5 µM).

Q: And the MIC [7]?
A: Its MIC is 25 µg/mL (≈ 88.5 µM).

Q: And the MIC [8]?
A: The MIC was 25 µg/mL (≈ 88.5 µM).

Q: What about the MIC [9] of the same compound?
A: Its MIC is 6.25 µg/mL (≈ 22.1 µM).

Q: And the GI50 [17]?
A: Its GI50 is “inactive”.

Q: What about the LC50 [17] of the same compound?
A: Its LC50 is “inactive”.

Q: And the TGI [17]?
A: The TGI was “inactive”.

Q: And the MIC [11]?
A: Its MIC is “inactive”.

Q: And the GI50 [14]?
A: The GI50 was 40.3 µM.

Q: And the LC50 [15]?
A: Its LC50 is “inactive”.

Q: And the TGI [15]?
A: Its TGI is “inactive”.

Q: And the GI50 [16]?
A: Its GI50 is “inactive”.

Q: What about the LC50 [16] of the same compound?
A: Its LC50 is “inactive”.

Q: What about the TGI [16] of the same compound?
A: Its TGI is “inactive”.

Q: Which MIC [1] does the source give for `C=C1C(=O)O[C@H]2/C=C(\C)[C@@H](O)CC/C(C)=C/[C@@H](O)[C@H]12` [TATRIDIN A] here?
A: The MIC was 6.25 µg/mL (≈ 23.6 µM).

Q: What about the MIC [2] of the same compound?
A: The MIC was 6.25 µg/mL (≈ 23.6 µM).

Q: And the MIC [3]?
A: Its MIC is 0.625 µg/mL (≈ 2.36 µM).

Q: What about the MIC [4] of the same compound?
A: Its MIC is 25 µg/mL (≈ 94.6 µM).

Q: What about the MIC [5] of the same compound?
A: Its MIC is 25 µg/mL (≈ 94.6 µM).

Q: And the MIC [6]?
A: The MIC was 25 µg/mL (≈ 94.6 µM).

Q: What about the MIC [7] of the same compound?
A: Its MIC is 25 µg/mL (≈ 94.6 µM).

Q: What about the MIC [8] of the same compound?
A: Its MIC is 25 µg/mL (≈ 94.6 µM).

Q: And the MIC [9]?
A: Its MIC is 6.25 µg/mL (≈ 23.6 µM).

Q: What about the MIC [10] of the same compound?
A: Its MIC is 25 µg/mL (≈ 94.6 µM).

Q: And the MIC [11]?
A: The MIC was “inactive”.

Q: With `C=C1C(=O)O[C@H]2C[C@]3(C)[C@H](O)CCC(=C)[C@@H]3[C@@H](O)[C@H]12` [ANTHEMIN B] as the compound, how does the GI50 [17] read?
A: Its GI50 is “inactive”.

Q: What about the LC50 [17] of the same compound?
A: Its LC50 is “inactive”.

Q: And the TGI [17]?
A: Its TGI is “inactive”.

Q: And the GI50 [14]?
A: Its GI50 is 52.3 µM.

Q: And the TGI [14]?
A: The TGI was 80.3 µM.

Q: What about the LC50 [15] of the same compound?
A: The LC50 was “inactive”.

Q: What about the GI50 [16] of the same compound?
A: Its GI50 is “inactive”.

Q: What about the LC50 [16] of the same compound?
A: Its LC50 is “inactive”.

Q: What about the TGI [16] of the same compound?
A: The TGI was “inactive”.

Q: `C=C1C(=O)O[C@H]2/C=C(\C)[C@@H](O)CC[C@@]3(C)O[C@@H]3[C@H](O)[C@H]12` was tested. Which MIC [1] did it give?
A: The MIC was 12.5 µg/mL (≈ 44.6 µM).

Q: And the MIC [2]?
A: The MIC was 12.5 µg/mL (≈ 44.6 µM).

Q: What about the MIC [3] of the same compound?
A: The MIC was 1.25 µg/mL (≈ 4.46 µM).

Q: And the MIC [4]?
A: The MIC was 25 µg/mL (≈ 89.2 µM).

Q: What about the MIC [5] of the same compound?
A: Its MIC is 50 µg/mL (≈ 178 µM).

Q: And the MIC [6]?
A: The MIC was 25 µg/mL (≈ 89.2 µM).

Q: And the MIC [7]?
A: Its MIC is 25 µg/mL (≈ 89.2 µM).

Q: And the MIC [8]?
A: Its MIC is 25 µg/mL (≈ 89.2 µM).

Q: What about the MIC [9] of the same compound?
A: The MIC was 6.25 µg/mL (≈ 22.3 µM).

Q: And the MIC [11]?
A: Its MIC is “inactive”.

Q: `c1ccc(-c2ccc(C(c3ccccc3)n3ccnc3)cc2)cc1` (centres undefined) [BIFONAZOLE] was tested. Which MIC [10] did it give?
A: The MIC was 200 µg/mL (≈ 644 µM).

Q: What about the MIC [11] of the same compound?
A: Its MIC is “inactive”.

Q: Which results are given for `CN[C@@H]1[C@H](O[C@H]2[C@H](O[C@H]3[C@H](O)[C@@H](O)[C@H](N=C(N)N)[C@@H](O)[C@@H]3N=C(N)N)O[C@@H](C)[C@]2(O)C=O)O[C@@H](CO)[C@H](O)[C@H]1O` [STREPTOMYCIN]?
A: MIC [1]: 50 µg/mL (≈ 86 µM); MIC [2]: 50 µg/mL (≈ 86 µM); MIC [4]: 100 µg/mL (≈ 172 µM); MIC [6]: 100 µg/mL (≈ 172 µM); MIC [7]: 200 µg/mL (≈ 344 µM); MIC [8]: 200 µg/mL (≈ 344 µM); MIC [9]: 50 µg/mL (≈ 86 µM); MIC [11]: inactive

Q: What does the source list for `CC[C@]1(O)C[C@@H]2CN(CCc3c([nH]c4ccccc34)[C@@](C(=O)OC)(c3cc4c(cc3OC)N(C)[C@H]3[C@@](O)(C(=O)OC)[C@H](OC(C)=O)[C@]5(CC)C=CCN6CC[C@]43[C@@H]65)C2)C1` [VINBLASTINE]?
A: GI50 [12]: < 0.01 µM; TGI [12]: 0.35 µM; GI50 [13]: < 0.01 µM; TGI [13]: 1.6 µM; GI50 [14]: < 0.01 µM; TGI [14]: 1.64 µM; CC50 ([14]; read-out: LC50 (the source's name)): 2.48 µM

Q: `C=C1C(=O)O[C@H]2C[C@@]3(C)[C@H](C(=C)CC[C@@H]3O)[C@@H](O)[C@H]12` [ELEGALACTONE A] was tested. Which MIC [2] did it give?
A: Its MIC is 50 µg/mL (≈ 189 µM).

Q: What about the MIC [3] of the same compound?
A: Its MIC is 50 µg/mL (≈ 189 µM).

Q: What about the GI50 [17] of the same compound?
A: The GI50 was “inactive”.

Q: What about the LC50 [17] of the same compound?
A: The LC50 was “inactive”.

Q: And the TGI [17]?
A: The TGI was “inactive”.

Q: What about the MIC [11] of the same compound?
A: Its MIC is “inactive”.

Q: What about the GI50 [14] of the same compound?
A: The GI50 was 76 µM.

Q: What about the LC50 [15] of the same compound?
A: The LC50 was “inactive”.

Q: What about the TGI [15] of the same compound?
A: The TGI was “inactive”.

Q: And the GI50 [16]?
A: Its GI50 is “inactive”.

Q: And the LC50 [16]?
A: The LC50 was “inactive”.

Q: And the TGI [16]?
A: Its TGI is “inactive”.

Q: With `C=C1C[C@@H]2OC(=O)C(=C)[C@H]2[C@@H](O)/C=C(\C)CCC1=O` [ANTHEMIN C] as the compound, how does the MIC [1] read?
A: The MIC was 12.5 µg/mL (≈ 47.7 µM).

Q: And the MIC [2]?
A: Its MIC is 12.5 µg/mL (≈ 47.7 µM).

Q: What about the MIC [3] of the same compound?
A: Its MIC is 1.25 µg/mL (≈ 4.77 µM).

Q: What about the MIC [9] of the same compound?
A: Its MIC is 25 µg/mL (≈ 95.3 µM).

Q: And the MIC [11]?
A: Its MIC is “inactive”.
